This experiment concerns hCerOs. Kind of experiment: Two-photon calcium imaging of intact hCerOs with bath application of drugs. The format is cell-based, human.

For `NC1=N[C@H](O)[C@H]2[C@H]3O[C@]4(O)O[C@@H]([C@@H](O)[C@@]2(N1)[C@@H]4O)[C@]3(O)CO` [Tetrodotoxin], the “sensitivity of individual Ca2+ neuronal calcium signals” value is “sensitive”.
